According to US4404230A, “4-Hydroxy-1,2-Benzisothiazol-3(2H)-one-1,1-dioxides and salts thereof” (priority 1980, dated 1983):

What was measured:
[1] = test system: taste testers; assay: Determination of the taste quality; type: in vivo
Experimental: The tests were performed in analogy to the method of DuBois, G. A. Crosby, R. A. Stephanson and R. E. Wingard Jr., J. Agric. […] The test compounds were used as aqueous solutions at a concentration which corresponds to an about 5% saccharose solution. As comparison compound saccharose was used. The tests were carried out under identical conditions. Only the characterization of the taste was evaluated, because the intensity was already determined in the preceding experiments. The following criteria were determined by each tester: Percentage sweet to percentage bitter to percentage another taste quality. Furthermore, the presence or absence of an after taste of the individual test compounds was determined. Each substance was tested twice with regard to five different determinations.

[2] = test system: taste testers; assay: Determination of the relative sweetening power in comparison to saccharose; type: in vivo; conditions: compared with 3% aqueous solution of saccharose
Source text: The relative sweetening power (often also defined as degree of sweetness) of sweetening agents in comparison with saccharose (cane sugar) varies considerably with concentration. […] Therefore, for the determination of the relative sweetening power of the test compounds a 3% aqueous solution of saccharose was always used for comparison.

[3] = test system: taste testers; assay: Determination of the threshold concentration (sweet taste); type: in vivo
Experimental: Aqueous solutions having concentrations of 1:12,500, 1:25,000, 1:50,000, and 1:100,000 were prepared of test compounds A, B and C and of comparison compounds X, Y and Z, and each was evaluated at 5 taste testers according to the following scoring system: Very sweet (=3 points), medium sweet (=2 points), weakly sweet (=1 point), and not sweet (=0 point). The tests were carried out as described by H. G. Schutz and F. J. Pilgrim in Food Research 22, 206 (1957). The dilution perceptible as sweet was defined as having the concentration at which the average value of the evaluation points reached 1.0 or more.

[4] = test system: taste testers; conditions: prior knowledge; cited from earlier work
[5] = prior knowledge; cited from earlier work
[6] = test system: taste testers; conditions: prior knowledge; cited from earlier work; remark: listed apart in the source
[7] = Batzinger et al., Science 198, 944 (1977); cited from earlier work
[8] = test system: thrombocyte aggregation; assay: Effect on thrombocyte aggregation induced by collagen; type: cell-based; conditions: read-out: Change in % max. aggregation rate
Experimental: The thrombocyte aggregation was measured according to Born and Cross [J. Physiol. 170, 397 (1964)] in platelet-rich plasma obtained by centrifuging citrate blood. The change in the maximum aggregation rate in % compared with a control, and the percent change in the "optical density" were the measured parameters. The aggregation was induced by collagen.

Row | SMILES | After taste ([1]; 1:20, 10 determinations) | Percentage bitter ([1]; 1:20, 10 determinations) | Percentage other taste ([1]; 1:20, 10 determinations) | Percentage sweet ([1]; 1:20, 10 determinations) | purity of the taste [1] | After taste ([1]; 1:10000, 10 determinations) | Percentage bitter ([1]; 1:10000, 10 determinations) | Percentage other taste ([1]; 1:10000, 10 determinations) | Percentage sweet ([1]; 1:10000, 10 determinations) | Relative sweetening power (Saccharose = 1) [2] | Average value of evaluation points ([3]; concentration 1:25000) | Average value of evaluation points ([3]; concentration 1:50000) | Average value of evaluation points ([3]; concentration 1:100000) | sweetening power compared with saccharose (in words) [4] | toxicological tests at higher dosages [5] | Average value of evaluation points ([3]; concentration 1:12500) | taste profile compared with saccharose [1] | after taste and concurrent taste [6] | mutagenic effect [7] | change in maximum aggregation rate vs control at 100 µM [8]
1 | OC[C@H]1O[C@@](CO)(O[C@H]2O[C@H](CO)[C@@H](O)[C@H](O)[C@H]2O)[C@@H](O)[C@@H]1O [Saccharose, saccharose, reference compound] | 4 | 0% | 2% | 98% |  |  |  |  |  |  |  |  |  |  |  |  |  |  |  | 
2 | O=C1NS(=O)(=O)c2cccc(O)c21 [Substance A, 4-hydroxy-1,2-benzisothiazol-3(2H)-one-1,1-dioxide] |  |  |  |  | 94-96% | 3 | 2% | 4% | 94% | 210 | 2.4 points | 1.0 points | 0.2 points |  |  |  |  |  |  | 
3 | O=C1NS(=O)(=O)c2cc(O)cc(O)c21 [Substance C, 4,6-Dihydroxy-1,2-benzoisothiazol-3(2H)-one-1,1-dioxide] |  |  |  |  | 86% | 8 | 3% | 11% | 86% | 180 | 1.8 points | 1.0 points | 0.0 points |  |  |  |  |  |  | 
4 | O=S(=O)(O)NC1CCCCC1 [X, cyclamate, reference compound] |  |  |  |  |  |  |  |  |  | 45 | 0.2 points | 0.0 points |  | much better than that of the saccharose | not without objection | 0.6 points |  |  |  | 
5 | O=C1NS(=O)(=O)c2ccccc21 [Y, saccharine, reference compound] |  |  |  |  |  | 80 | 21% | 7% | 72% |  | 2.4 points | 1.2 points | 0.4 points | much better than that of the saccharose |  |  | not even approached | metallic, bitter after taste and the bitter concurrent taste | shows a mutagenic effect | 
6 | O=C1NS(=O)(=O)c2cc(O)ccc21 [Z, 6-hydroxy-1,2-benzisothiazol-3(2H)-one-1,1-dioxide, reference compound] |  |  |  |  |  | 29 | 7% | 12% | 81% | 140 | 1.4 points | 0.6 points | 0.0 points |  |  |  | not even approached |  |  | 
7 | O=C1NS(=O)(=O)c2cccc(O)c21.[Na] [sodium salt] |  |  |  |  |  |  |  |  |  |  |  |  |  |  |  |  |  |  |  | 0%
